From patent publication US12209087B2, “AKT1 modulators” (Alterome Therapeutics, Inc., priority 2022, dated 2025)

biological target: T1, full length AKT E17K (Homo sapiens, UniProt P31749, E17K); experiment: NanoBRET Target Engagement (TE) Assay; format: cell-based; conditions: competitive displacement of tracer in cells, read-out: AKT1 E17K IC50
T1 construct: host or cells: HEK-293 (ATCC CRL-1573)
How it was run: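 Compound and tracer incubated 2 h before luminescence at donor 450 nm and acceptor 600 nm, with extracellular signal inhibited. EC50 by sigmoidal variable-slope regression.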

T1 sequence (P31749 whole entry E17K): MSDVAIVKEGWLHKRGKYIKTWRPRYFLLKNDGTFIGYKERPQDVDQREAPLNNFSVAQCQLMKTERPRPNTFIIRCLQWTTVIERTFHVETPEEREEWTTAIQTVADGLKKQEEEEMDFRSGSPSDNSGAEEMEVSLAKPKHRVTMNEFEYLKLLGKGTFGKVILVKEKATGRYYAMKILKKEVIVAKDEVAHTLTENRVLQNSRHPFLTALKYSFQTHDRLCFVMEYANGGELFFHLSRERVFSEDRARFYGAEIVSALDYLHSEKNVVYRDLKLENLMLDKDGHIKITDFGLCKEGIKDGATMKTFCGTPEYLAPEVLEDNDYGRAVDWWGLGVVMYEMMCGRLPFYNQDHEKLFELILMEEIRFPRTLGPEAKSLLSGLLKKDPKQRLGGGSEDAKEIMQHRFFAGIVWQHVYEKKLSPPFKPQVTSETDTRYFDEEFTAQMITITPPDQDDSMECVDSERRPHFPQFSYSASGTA

| IC50 | SMILES |
| --- | --- |
| 15 to 60 nM | N#Cc1nccc(NC2CC3(CCN(Cc4ccc(-n5c(-c6cccnc6N)nc6ccc(-c7ccc(F)cc7)nc65)cc4)CC3)C2)n1 [Example 444, 4-((7-(4-(2-(2-Aminopyridin-3-yl)-5-(4-fluorophenyl)-3H-imidazo[4,5-b]pyridin-3-yl)benzyl)-7-azaspiro[3.5]nonan-2-yl)amino)pyrimidine-2-carbonitrile] |
| < 15 nM | N#Cc1nccc(NC2CCN(Cc3ccc(-n4c(-c5cccnc5N)nc5ccc(-c6ccc(F)cc6)nc54)cc3)CC2)n1 [Example 370, 4-((1-(4-(2-(2-Aminopyridin-3-yl)-5-(4-fluorophenyl)-3H-imidazo[4,5-b]pyridin-3-yl)benzyl)piperidin-4-yl)amino)pyrimidine-2-carbonitrile] |
| < 15 nM | [2H]C([2H])([2H])Oc1ccc2nc(-c3cccnc3N)n(-c3ccc(CN4CCC(Nc5ccnc(C#N)n5)CC4)cc3)c2n1 [Example 427, 4-((1-(4-(2-(2-Aminopyridin-3-yl)-5-(methoxy-d3)-3H-imidazo[4,5-b]pyridin-3-yl)benzyl)piperidin-4-yl)amino)pyrimidine-2-carbonitrile] |
| < 15 nM | N#Cc1nccc(NC2CCN(Cc3ccc(-n4c(-c5cccnc5N)nc5ccc(OCF)nc54)cc3)CC2)n1 [Example 416, 4-((1-(4-(2-(2-Aminopyridin-3-yl)-5-(fluoromethoxy)-3H-imidazo[4,5-b]pyridin-3-yl)benzyl)piperidin-4-yl)amino)pyrimidine-2-carbonitrile] |
| 60 to 600 nM | N#Cc1ccc(-c2ccc3nc(-c4cccnc4N)n(-c4ccc(CN5CCC(Nc6nccc(C#N)n6)CC5)cc4)c3n2)cc1 [Example 321, 2-((1-(4-(2-(2-Aminopyridin-3-yl)-5-(4-cyanophenyl)-3H-imidazo[4,5-b]pyridin-3-yl)benzyl)piperidin-4-yl)amino)pyrimidine-4-carbonitrile] |
| < 15 nM | N#CCn1ncc(-c2ccc3nc(-c4cccnc4N)n(-c4ccc(CN5CCC(Nc6ccnc(C#N)n6)CC5)cc4)c3n2)n1 [Example 626, 4-((1-(4-(2-(2-Aminopyridin-3-yl)-5-(2-(cyanomethyl)-2H-1,2,3-triazol-4-yl)-3H-imidazo[4,5-b]pyridin-3-yl)benzyl)piperidin-4-yl)amino)pyrimidine-2-carbonitrile] |
| < 15 nM | N#Cc1nccc(NC2CCN(Cc3ccc(-n4c(-c5cccnc5N)nc5ccc(-c6ccc(C7CC7)cn6)nc54)cc3)CC2)n1 [Example 644, 4-((1-(4-(2-(2-Aminopyridin-3-yl)-5-(5-cyclopropylpyridin-2-yl)-3H-imidazo[4,5-b]pyridin-3-yl)benzyl)piperidin-4-yl)amino)pyrimidine-2-carbonitrile] |
| < 15 nM | N#Cc1nccc(NC2CCN(Cc3ccc(-n4c(-c5cccnc5N)nc5ccc(-c6cnn(C(F)F)n6)nc54)cc3)CC2)n1 [Example 620, 4-((1-(4-(2-(2-Aminopyridin-3-yl)-5-(2-(difluoromethyl)-2H-1,2,3-triazol-4-yl)-3H-imidazo[4,5-b]pyridin-3-yl)benzyl)piperidin-4-yl)amino)pyrimidine-2-carbonitrile] |
| < 15 nM | N#Cc1nccc(NC2CCN(Cc3ccc(-n4c(-c5cccnc5N)nc5ccc(-c6ccc[nH]c6=O)nc54)cc3)CC2)n1 [Example 381, 4-((1-(4-(2-(2-Aminopyridin-3-yl)-5-(2-oxo-1,2-dihydropyridin-3-yl)-3H-imidazo[4,5-b]pyridin-3-yl)benzyl)piperidin-4-yl)amino)pyrimidine-2-carbonitrile] |
| < 15 nM | N#Cc1nccc(NC2CCN(Cc3ccc(-n4c(-c5cccnc5N)nc5ccc(-c6cnn(C(F)F)c6)nc54)cc3)CC2)n1 [Example 474, 4-((1-(4-(2-(2-Aminopyridin-3-yl)-5-(1-(difluoromethyl)-1H-pyrazol-4-yl)-3H-imidazo[4,5-b]pyridin-3-yl)benzyl)piperidin-4-yl)amino)pyrimidine-2-carbonitrile] |

same assay, conditions: competitive tracer displacement in living cells, read-out: AKT1 E17K IC50

| IC50 | SMILES |
| --- | --- |
| < 15 nM | N#Cc1nccc(N2CCC3(CCN(Cc4ccc(-n5c(-c6cccnc6N)nc6ccc(-c7ccccc7)nc65)cc4)C3)C2)n1 (centres unmarked) [Example 302, 4-(7-(4-(2-(2-Aminopyridin-3-yl)-5-phenyl-3H-imidazo[4,5-b]pyridin-3-yl)benzyl)-2,7-diazaspiro[4.4]nonan-2-yl)pyrimidine-2-carbonitrile] |
| 600 to 10000 nM | N#Cc1ccnc(NCc2ccc(-n3c(-c4cccnc4N)nc4cccnc43)cc2)c1 [Example 132, 2-((4-(2-(2-Aminopyridin-3-yl)-3H-imidazo[4,5-b]pyridin-3-yl)benzyl)amino)isonicotinonitrile] |
| 60 to 600 nM | N#Cc1nc2cc(C(=O)NC3CCN(Cc4ccc(-n5c(-c6cccnc6N)nc6cccnc65)cc4)CC3)ccc2s1 [Example 34, N-(1-(4-(2-(2-aminopyridin-3-yl)-3H-imidazo[4,5-b]pyridin-3-yl)benzyl)piperidin-4-yl)-2-cyanobenzo[d]thiazole-5-carboxamide] |
| 15 to 60 nM | N#Cc1ncnc(N2CC3CCC2CN3Cc2ccc(-n3c(-c4cccnc4N)nc4ccc(-c5ccccc5)nc43)cc2)n1 (centres unmarked) [Example 257, 4-(5-(4-(2-(2-Aminopyridin-3-yl)-5-phenyl-3H-imidazo[4,5-b]pyridin-3-yl)benzyl)-2,5-diazabicyclo[2.2.2]octan-2-yl)-1,3,5-triazine-2-carbonitrile] |
| 60 to 600 nM | N#Cc1cc(N2CC3CCC2CN3Cc2ccc(-n3c(-c4cccnc4N)nc4ccc(-c5ccccc5)nc43)cc2)ncn1 (centres unmarked) [Example 221, 6-(5-(4-(2-(2-Aminopyridin-3-yl)-5-phenyl-3H-imidazo[4,5-b]pyridin-3-yl)benzyl)-2,5-diazabicyclo[2.2.2]octan-2-yl)pyrimidine-4-carbonitrile] |
| < 15 nM | C[C@@H]1CN(Cc2ccc(-n3c(-c4cccnc4N)nc4ccc(-c5ccccc5)nc43)cc2)C[C@@H](C)N1c1ccnc(C#N)n1 [Example 195, 4-((2R,6R)-4-(4-(2-(2-aminopyridin-3-yl)-5-phenyl-3H-imidazo[4,5-b]pyridin-3-yl)benzyl)-2,6-dimethylpiperazin-1-yl)pyrimidine-2-carbonitrile] |
| 600 to 10000 nM | N#Cc1nccnc1C(=O)N1CCN(Cc2ccc(-n3c(-c4cccnc4N)nc4cccnc43)cc2)CC1 [Example 164, 3-(4-(4-(2-(2-Aminopyridin-3-yl)-3H-imidazo[4,5-b]pyridin-3-yl)benzyl)piperazine-1-carbonyl)pyrazine-2-carbonitrile] |
| 60 to 600 nM | N#Cc1ccnc(N2CCN(Cc3ccc(-n4c(-c5cccnc5N)nc5ccc(-c6cccc(Cl)c6)nc54)cc3)CC2)n1 [Example 297, 2-(4-(4-(2-(2-Aminopyridin-3-yl)-5-(3-chlorophenyl)-3H-imidazo[4,5-b]pyridin-3-yl)benzyl)piperazin-1-yl)pyrimidine-4-carbonitrile] |
| < 15 nM | N#Cc1cc(N2CCN(Cc3ccc(-n4c(-c5cccnc5N)nc5ccc(-c6cccc(F)c6)nc54)cc3)CC2)ncn1 [Example 310, 6-(4-(4-(2-(2-Aminopyridin-3-yl)-5-(3-fluorophenyl)-3H-imidazo[4,5-b]pyridin-3-yl)benzyl)piperazin-1-yl)pyrimidine-4-carbonitrile] |
| 15 to 60 nM | N#Cc1nccc(NC2CCN(Cc3ccc(-n4c(-c5cccnc5N)nc5ccc(C6=CCCCC6)nc54)cc3)CC2)n1 [Example 263, 4-((1-(4-(2-(2-Aminopyridin-3-yl)-5-(cyclohex-1-en-1-yl)-3H-imidazo[4,5-b]pyridin-3-yl)benzyl)piperidin-4-yl)amino)pyrimidine-2-carbonitrile] |
